# pIC50: −log10 of the molar value. Read-outs that look alike come from different tables or passages of the source.
# Tests used:
# [1] = biological target: human α1G T-type channels (Homo sapiens, UniProt O43497); assay: T-type calcium channel block, whole cell patch clamp, α1G; assay type: cell-based; details: HEK cells stably expressing human α1G; mainly non-inactivated protocol; values above 10,000 nM represented as 10000
# Outline: (§1)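 Whole-cell voltage clamp on stably transfected HEK 293 lines carrying human α1H or α1G. Two voltage protocols used: non-inactivated pre-pulse for resting block, inactivated for voltage-dependent block; test agents perfused locally in external solution (0.1-0.01% DMSO) following ~10 min rest.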
# [2] = biological target: N-type calcium channel subunits (α1B, α2δ, and β3a) (Homo sapiens, UniProt Q00975); assay: Block of Cav2.2 channel, whole cell voltage clamp, manual and PatchXpress; assay type: cell-based; details: Table 5; table follows Assay Example 3 (whole cell voltage clamp / PatchXpress); assay not given
# Outline: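 Percent block taken as current amplitude ratio with versus without compound, applied in rising doses; IC50 fitted where one cell received multiple doses. Protocol: 50 ms pulses to +20 mV at 0.067 Hz from […] or −90 mV holding; P/n leak subtraction, no junction-potential correction; manual and PatchXpress recordings.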
# male CF1 mice = assay: 6 Hz psychomotor seizure model of partial epilepsy; assay type: in vivo; set-up: concentration or dose not given beside the values; details: 6 Hz 32 mA corneal stimulus
# Description: Compounds can also be evaluated for the protection against seizures induced by a 6 Hz, 0.2 ms rectangular pulse width of 3 s duration, at a stimulus intensity of 32 mA (CC97) applied to the cornea of male CF1 mice (20-30 g) according to procedures described by Barton et al, “Pharmacological Characterization of the 6 Hz Psychomotor Seizure Model of Partial Epilepsy,” Epilepsy Res. 47(3):217-27 (2001). Seizures are characterised by the expression of one or more of the following behaviours: stun, forelimb clonus, twitching of the vibrissae and Straub-tail immediately following electrical stimulation.
# mice [3] = details: mouse, in vivo
# Description: (§2) In mice, the rotarod procedure (Dunham and Miya, J. Am. Pharmacol. Assoc. 46:208-209 (1957)) is used to disclose minimal muscular or neurological impairment (MMI). When a mouse is placed on a rod that rotates at a speed of 6 rpm, the animal can maintain its equilibrium for long periods of time. The animal is considered toxic if it falls off this rotating rod three times during a 1-min period.
# [4] = biological target: human α1H T-type channels (Homo sapiens, UniProt O95180); assay: T-type calcium channel block, whole cell patch clamp, α1H; assay type: cell-based; details: HEK cells stably expressing human α1H; mainly non-inactivated protocol; values above 10,000 nM represented as 10000
# Outline: as §1
# mice [5] = assay: Mouse rotarod assay; details: rod at 6 rpm
# Description: as §2
# Chain of human α1G T-type channels (O43497 whole entry, the tested form may be a part): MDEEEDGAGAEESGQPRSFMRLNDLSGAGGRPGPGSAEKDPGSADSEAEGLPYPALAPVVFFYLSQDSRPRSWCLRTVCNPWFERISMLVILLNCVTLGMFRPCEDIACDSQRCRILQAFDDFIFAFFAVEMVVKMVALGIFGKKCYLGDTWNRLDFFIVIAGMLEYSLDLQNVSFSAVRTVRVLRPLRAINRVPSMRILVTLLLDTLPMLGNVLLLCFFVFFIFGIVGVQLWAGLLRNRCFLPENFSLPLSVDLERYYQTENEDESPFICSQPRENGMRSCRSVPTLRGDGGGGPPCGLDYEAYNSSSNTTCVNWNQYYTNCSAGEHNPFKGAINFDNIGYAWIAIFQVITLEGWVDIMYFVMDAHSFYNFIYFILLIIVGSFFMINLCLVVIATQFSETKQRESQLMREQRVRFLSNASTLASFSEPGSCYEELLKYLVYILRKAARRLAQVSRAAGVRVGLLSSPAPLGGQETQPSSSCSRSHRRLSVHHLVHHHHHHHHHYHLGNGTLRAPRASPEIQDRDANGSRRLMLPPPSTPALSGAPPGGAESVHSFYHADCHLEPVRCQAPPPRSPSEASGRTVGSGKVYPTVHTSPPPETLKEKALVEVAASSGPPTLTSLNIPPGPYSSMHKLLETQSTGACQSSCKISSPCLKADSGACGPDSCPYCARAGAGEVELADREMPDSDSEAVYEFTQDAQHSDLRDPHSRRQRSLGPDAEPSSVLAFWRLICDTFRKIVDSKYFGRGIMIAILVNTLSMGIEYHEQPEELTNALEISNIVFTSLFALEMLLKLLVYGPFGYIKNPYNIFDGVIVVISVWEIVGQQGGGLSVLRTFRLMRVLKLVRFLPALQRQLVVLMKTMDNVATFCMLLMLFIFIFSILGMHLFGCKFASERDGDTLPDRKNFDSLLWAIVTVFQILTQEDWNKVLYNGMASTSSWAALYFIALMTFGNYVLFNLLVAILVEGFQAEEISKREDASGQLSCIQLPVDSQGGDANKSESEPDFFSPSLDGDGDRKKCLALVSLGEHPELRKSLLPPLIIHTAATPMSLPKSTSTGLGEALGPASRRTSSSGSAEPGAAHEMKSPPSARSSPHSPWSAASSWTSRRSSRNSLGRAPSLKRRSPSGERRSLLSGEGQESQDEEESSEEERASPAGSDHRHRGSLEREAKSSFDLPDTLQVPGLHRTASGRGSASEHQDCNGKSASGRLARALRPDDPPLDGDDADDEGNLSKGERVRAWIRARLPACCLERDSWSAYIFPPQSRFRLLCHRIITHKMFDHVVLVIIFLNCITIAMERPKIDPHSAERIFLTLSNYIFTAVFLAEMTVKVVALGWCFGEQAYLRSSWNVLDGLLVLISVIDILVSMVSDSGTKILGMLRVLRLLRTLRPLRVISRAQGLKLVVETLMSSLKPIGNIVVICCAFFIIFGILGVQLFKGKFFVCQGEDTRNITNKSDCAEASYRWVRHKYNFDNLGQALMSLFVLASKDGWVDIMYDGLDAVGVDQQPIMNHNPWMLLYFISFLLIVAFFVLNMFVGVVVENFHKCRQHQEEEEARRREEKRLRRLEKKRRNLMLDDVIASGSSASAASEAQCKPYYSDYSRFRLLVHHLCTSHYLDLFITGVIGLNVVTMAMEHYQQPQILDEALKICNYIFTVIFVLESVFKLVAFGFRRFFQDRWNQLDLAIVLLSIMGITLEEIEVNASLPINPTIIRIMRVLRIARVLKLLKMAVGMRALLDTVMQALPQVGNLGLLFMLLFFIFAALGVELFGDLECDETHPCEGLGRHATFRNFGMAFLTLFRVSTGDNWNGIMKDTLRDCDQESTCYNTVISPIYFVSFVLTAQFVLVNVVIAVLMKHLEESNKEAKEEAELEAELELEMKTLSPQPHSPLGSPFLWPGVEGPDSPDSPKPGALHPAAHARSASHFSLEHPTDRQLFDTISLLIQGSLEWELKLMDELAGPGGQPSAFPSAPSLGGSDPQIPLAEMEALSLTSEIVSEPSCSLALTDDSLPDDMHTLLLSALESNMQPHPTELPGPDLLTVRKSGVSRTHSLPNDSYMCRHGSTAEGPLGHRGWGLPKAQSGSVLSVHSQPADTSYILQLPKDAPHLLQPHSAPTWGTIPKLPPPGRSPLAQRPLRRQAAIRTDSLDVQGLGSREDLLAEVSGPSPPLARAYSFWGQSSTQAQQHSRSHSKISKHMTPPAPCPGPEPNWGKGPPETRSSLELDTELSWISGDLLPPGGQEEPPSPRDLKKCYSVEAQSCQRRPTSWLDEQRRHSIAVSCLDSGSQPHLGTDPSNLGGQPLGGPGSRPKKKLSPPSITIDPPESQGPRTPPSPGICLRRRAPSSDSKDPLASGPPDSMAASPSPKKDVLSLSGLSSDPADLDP
# Chain of human α1H T-type channels (O95180 whole entry): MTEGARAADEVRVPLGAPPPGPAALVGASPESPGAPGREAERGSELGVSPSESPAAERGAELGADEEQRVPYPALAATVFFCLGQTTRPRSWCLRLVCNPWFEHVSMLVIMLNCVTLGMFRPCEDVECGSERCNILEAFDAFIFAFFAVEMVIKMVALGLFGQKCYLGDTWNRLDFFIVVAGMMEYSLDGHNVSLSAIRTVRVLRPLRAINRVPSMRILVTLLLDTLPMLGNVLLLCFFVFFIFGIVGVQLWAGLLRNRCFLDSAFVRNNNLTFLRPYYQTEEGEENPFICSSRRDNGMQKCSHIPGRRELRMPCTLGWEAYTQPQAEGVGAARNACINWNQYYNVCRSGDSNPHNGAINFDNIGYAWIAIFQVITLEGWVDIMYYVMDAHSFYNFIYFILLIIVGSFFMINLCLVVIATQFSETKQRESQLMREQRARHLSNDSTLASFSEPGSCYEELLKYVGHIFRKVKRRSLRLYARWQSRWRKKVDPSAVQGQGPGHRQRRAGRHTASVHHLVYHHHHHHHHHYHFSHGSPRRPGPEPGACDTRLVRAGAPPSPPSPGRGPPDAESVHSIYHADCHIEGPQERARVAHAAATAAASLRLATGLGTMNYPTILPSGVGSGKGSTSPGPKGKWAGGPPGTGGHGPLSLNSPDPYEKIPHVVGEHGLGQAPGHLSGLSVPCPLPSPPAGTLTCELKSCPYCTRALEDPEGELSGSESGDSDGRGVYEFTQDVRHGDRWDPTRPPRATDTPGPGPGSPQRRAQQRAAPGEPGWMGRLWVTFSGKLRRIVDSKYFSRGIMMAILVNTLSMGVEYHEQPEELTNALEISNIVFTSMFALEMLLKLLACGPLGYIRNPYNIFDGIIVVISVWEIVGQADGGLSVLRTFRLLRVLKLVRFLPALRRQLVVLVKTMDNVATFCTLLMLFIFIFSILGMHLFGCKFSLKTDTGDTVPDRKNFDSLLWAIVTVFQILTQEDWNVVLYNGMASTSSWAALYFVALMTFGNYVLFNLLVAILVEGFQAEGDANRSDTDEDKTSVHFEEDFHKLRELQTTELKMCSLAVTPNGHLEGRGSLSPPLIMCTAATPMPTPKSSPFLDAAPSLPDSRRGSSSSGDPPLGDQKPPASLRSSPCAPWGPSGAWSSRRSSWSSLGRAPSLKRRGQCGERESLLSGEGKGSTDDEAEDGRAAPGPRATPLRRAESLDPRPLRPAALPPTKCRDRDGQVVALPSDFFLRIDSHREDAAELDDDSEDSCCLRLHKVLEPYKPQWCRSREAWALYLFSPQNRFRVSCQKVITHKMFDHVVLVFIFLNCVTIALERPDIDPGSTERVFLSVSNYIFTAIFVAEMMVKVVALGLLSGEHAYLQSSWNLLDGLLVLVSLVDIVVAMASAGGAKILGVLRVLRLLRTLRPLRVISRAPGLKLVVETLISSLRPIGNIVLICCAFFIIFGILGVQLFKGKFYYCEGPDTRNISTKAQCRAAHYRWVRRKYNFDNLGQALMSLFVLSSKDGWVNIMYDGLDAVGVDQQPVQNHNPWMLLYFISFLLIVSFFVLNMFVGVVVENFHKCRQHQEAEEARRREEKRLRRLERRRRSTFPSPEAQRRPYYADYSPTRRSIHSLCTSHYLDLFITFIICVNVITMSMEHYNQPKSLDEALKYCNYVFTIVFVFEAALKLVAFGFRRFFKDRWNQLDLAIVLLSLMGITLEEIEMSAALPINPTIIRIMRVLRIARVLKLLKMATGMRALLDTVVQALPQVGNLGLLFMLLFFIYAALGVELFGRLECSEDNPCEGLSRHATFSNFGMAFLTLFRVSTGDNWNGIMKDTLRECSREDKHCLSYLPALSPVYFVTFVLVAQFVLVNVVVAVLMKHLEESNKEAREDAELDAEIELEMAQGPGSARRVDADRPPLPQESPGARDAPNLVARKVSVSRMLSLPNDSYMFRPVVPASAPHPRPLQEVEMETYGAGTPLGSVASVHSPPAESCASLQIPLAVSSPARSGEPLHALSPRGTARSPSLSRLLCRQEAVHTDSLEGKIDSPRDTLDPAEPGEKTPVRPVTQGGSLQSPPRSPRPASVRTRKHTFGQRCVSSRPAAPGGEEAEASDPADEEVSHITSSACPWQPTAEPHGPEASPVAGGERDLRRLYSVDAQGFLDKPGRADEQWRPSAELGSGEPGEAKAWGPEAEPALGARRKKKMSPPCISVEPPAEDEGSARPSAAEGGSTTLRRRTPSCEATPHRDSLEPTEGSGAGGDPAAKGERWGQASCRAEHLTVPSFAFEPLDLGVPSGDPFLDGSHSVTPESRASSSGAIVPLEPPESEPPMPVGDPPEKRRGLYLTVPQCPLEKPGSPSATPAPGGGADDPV
SMILES,pIC50 [1],IC50 [2],Epilepsy 6 Hz (% protected) 0.25 hr (male CF1 mice),Epilepsy 6 Hz (% protected) 0.5 hr (male CF1 mice),Epilepsy 6 Hz (% protected) 1 hr (male CF1 mice),Epilepsy 6 Hz (% protected) 2 hr (male CF1 mice),Epilepsy 6 Hz (% protected) 4 hr (male CF1 mice),EPILEPSY ROTAROD (% IMPAIRED) 0.25 hr (mice [3]),EPILEPSY ROTAROD (% IMPAIRED) 0.5 hr (mice [3]),EPILEPSY ROTAROD (% IMPAIRED) 1 hr (mice [3]),EPILEPSY ROTAROD (% IMPAIRED) 2 hr (mice [3]),EPILEPSY ROTAROD (% IMPAIRED) 4 hr (mice [3]),pIC50 [4],EPILEPSY ROTAROD (% IMPAIRED) 0.25 hr (mice [5]),EPILEPSY ROTAROD (% IMPAIRED) 0.5 hr (mice [5]),EPILEPSY ROTAROD (% IMPAIRED) 1 hr (mice [5]),EPILEPSY ROTAROD (% IMPAIRED) 2 hr (mice [5]),EPILEPSY ROTAROD (% IMPAIRED) 4 hr (mice [5])
"O=C(NCC1(O)CCC(S(=O)(=O)c2cccc(C(F)(F)F)c2)CC1)c1ccc(F)c(Cl)c1 [Compound 230, 3-chloro-4-fluoro-N-(((1S,4S)-1-hydroxy-4-(3-(trifluoromethyl)phenylsulfonyl)cyclohexyl)methyl)benzamide]",5.93,790 nM,0%,25%,25%,100%,0%,0%,0%,0%,0%,0%,–,–,–,–,–,–
"O=C(NC1CCC(F)(S(=O)(=O)c2cccc(C(F)(F)F)c2)CC1)c1nocc1C1CC1 [Compound 272, 4-cyclopropyl-N-((1S,4S)-4-fluoro-4-(3-(trifluoromethyl)phenylsulfonyl)cyclohexyl) isoxazole-3-carboxamide]",< 5.00,430 nM,0%,0%,0%,0%,0%,–,–,–,–,–,< 5.00,0%,0%,0%,0%,0%
"CS(=O)(=O)c1cc(C(F)(F)F)ccc1C(=O)NCC1CC(S(=O)(=O)c2cccc(C(F)(F)F)c2)C1 [Compound 356, 2-(methylsulfonyl)-4-(trifluoromethyl)-N-(((1R,3R)-3-(3-(trifluoromethyl)phenylsulfonyl)cyclobutyl)methyl)benzamide]",5.02,570 nM,25%,0%,0%,0%,0%,0%,0%,0%,0%,0%,5.50,–,–,–,–,–
"CS(=O)(=O)c1nc(C(F)(F)F)ccc1C(=O)NCC1CC(S(=O)(=O)c2cccc(C(F)(F)F)c2)C1 [Compound 365, 2-(methylsulfonyl)-6-(trifluoromethyl)-N-(((1R,3R)-3-(3-(trifluoromethyl)phenylsulfonyl)cyclobutyl)methyl)nicotinamide]",5.19,1610 nM,25%,50%,50%,25%,25%,–,–,–,–,–,5.66,0%,0%,0%,0%,0%
"CC(C)S(=O)(=O)c1cc(C(F)(F)F)cnc1C(=O)NC[C@H]1C[C@H](S(=O)(=O)c2cccc(C(F)(F)F)c2)C1 [Compound 374, 3-(isopropylsulfonyl)-5-(trifluoromethyl)-N-(((1R,3R)-3-(3-(trifluoromethyl)phenylsulfonyl)cyclobutyl)methyl)picolinamide]",5.11,250 nM,0%,0%,0%,0%,0%,–,–,–,–,–,5.68,0%,0%,0%,0%,0%
"O=C(NCC1CC(S(=O)(=O)c2cc(F)cc(C(F)(F)F)c2)C1)c1cc(F)cc(Cl)c1 [Compound 396, 3-chloro-5-fluoro-N-(((1R,3R)-3-(3-fluoro-5-(trifluoromethyl)phenylsulfonyl)cyclobutyl)methyl)benzamide]",–,940 nM,50%,0%,0%,25%,0%,0%,0%,0%,0%,0%,–,–,–,–,–,–
"CC(C)(C1CC(NC(=O)c2cn3cc(C(F)(F)F)ccc3n2)C1)S(=O)(=O)c1cccc(C(F)(F)F)c1 [Compound 438, 6-(trifluoromethyl)-N-((1R,3R)-3-(2-(3-(trifluoromethyl)phenylsulfonyl)propan-2-yl)cyclobutyl)imidazo[1,2-a]pyridine-2-carboxamide]",–,400 nM,75%,0%,0%,25%,0%,0%,0%,0%,0%,0%,–,–,–,–,–,–
"O=S(=O)(c1cccc(C(F)(F)F)c1)C1CC(c2c[nH]c(C(F)(F)F)n2)C1 [Compound 442, 2-(trifluoromethyl)-4-((1R,3R)-3-(3-(trifluoromethyl)phenylsulfonyl)cyclobutyl)-1H-imidazole]",–,2840 nM,50%,25%,75%,0%,0%,0%,0%,0%,0%,0%,–,–,–,–,–,–
CC(C)([C@H]1C[C@@H](NC(=O)c2cc(C(F)(F)F)ccn2)C1)S(=O)(=O)c1cccc(C(F)(F)F)c1 [Compound 551],–,–,25%,0%,0%,0%,0%,–,–,–,–,–,–,0%,0%,0%,0%,0%

# Reference: patent US20120245137A1 (Zalicus Pharmaceuticals Ltd., priority 2009, published 2012)
